Assays:
QT interval [1] = assay: QT prolongation vs presence or absence of TT genotype at rs3775378 in 174 individuals given iloperidone; type: in vivo, human; conditions: 24 mg/day B.I.D. oral, two weeks
Method: (§1) Since the QT interval changes with changes in heart rate, the QT interval is often measured as a corrected QT (QTc) interval. Any number of formulas may be employed to calculate the QTc, including, for example, the Fridericia formula (QTcF), the Bazett formula (QTcB), and the Rautaharju formula (QTp), among others. In the studies described herein, QT was calculated using the Fridericia formula. However, the present invention includes the use of any such formula or method for calculating a QTc or an uncorrected QT. Using the genotypes at the SNP loci above, it is possible, with a high degree of certainty, to predict an individual's predisposition to QT prolongation.

QT interval [2] = assay: FAM13A1 SNP genotypes and QT prolongation (QTcF) following administration of iloperidone; type: in vivo, human
Method: as §1, with “QT.” for “QT. Using the genotypes at the SNP loci above, it is possible, with a high degree of certainty, to predict an individual's predisposition to QT prolongation.”

COc1cc(C(C)=O)ccc1OCCCN1CCC(c2noc3cc(F)ccc23)CC1 [iloperidone, 1-[4-[3-[4-(6-fluoro-1,2-benzisoxazol-3-yl)-1-piperidinyl]propoxy]-3-methoxyphenyl]ethanone]
High QT, + test (number of individuals) (QT interval [1]; Change threshold QT > 5 msec): 9 | High QT, − test (number of individuals) (QT interval [1]; Change threshold QT > 5 msec): 101 | Low QT, + test (number of individuals) (QT interval [1]; Change threshold QT > 5 msec): 0 | Low QT, − test (number of individuals) (QT interval [1]; Change threshold QT > 5 msec): 63 | High QT, + test (number of individuals) (QT interval [1]; Change threshold QT > 15 msec): 8 | High QT, − test (number of individuals) (QT interval [1]; Change threshold QT > 15 msec): 59 | Low QT, + test (number of individuals) (QT interval [1]; Change threshold QT > 15 msec): 1 | Low QT, − test (number of individuals) (QT interval [1]; Change threshold QT > 15 msec): 105 | High QT, + test (number of individuals) (QT interval [1]; Change threshold QT > 30 msec): 6 | High QT, − test (number of individuals) (QT interval [1]; Change threshold QT > 30 msec): 22 | Low QT, + test (number of individuals) (QT interval [1]; Change threshold QT > 30 msec): 3 | Low QT, − test (number of individuals) (QT interval [1]; Change threshold QT > 30 msec): 142 | Lowest QTc change (genotype) (QT interval [2]; SNP_A-1824897, rs10008568, allele A=A, B=G): nonAB | Lowest QTc change (genotype) (QT interval [2]; SNP_A-1906173, rs3775378, allele A=C, B=T): non-BB | Lowest QTc change (genotype) (QT interval [2]; SNP_A-1943446, rs17014602, allele A=C, B=G): non-AA | Lowest QTc change (genotype) (QT interval [2]; SNP_A-1977994, rs17014483, allele A=C, B=T): non-BB | Lowest QTc change (genotype) (QT interval [2]; SNP_A-2152738, rs1458553, allele A=A, B=G): nonAA | Lowest QTc change (genotype) (QT interval [2]; SNP_A-2190887, rs2609260, allele A=A, B=G): nonAB | Lowest QTc change (genotype) (QT interval [2]; SNP_A-4287986, rs2609265, allele A=C, B=T): nonAB | Lowest QTc change (genotype) (QT interval [2]; SNP_A-4290819, rs17014687, allele A=C, B=T): non-BB | Lowest QTc change (genotype) (QT interval [2]; SNP_A-4291320, rs2609264, allele A=C, B=T): nonAB | Lowest QTc change (genotype) (QT interval [2]; SNP_A-4296194, rs12507401, allele A=C, B=G): non-AA

From patent publication US9074255B2, “Method of predicting a predisposition to QT prolongation” (Vanda Pharmaceuticals, Inc., priority 2009, dated 2015)
